Drawing on patent publication US20090264415A2 (priority 2004, published 2009), this text covers IC50 for 24 compounds.

pIC50: −log10 of the molar value.

This experiment deals with peripheral blood mononuclear cells (PBMC) stimulated with allogeneic PBMC or EBV-transformed human B cells (RPMI1788). The experiment in a line: Mixed lymphocyte reaction (MLR) assay. The experiment is classed as cell-based. The following applies: Homo sapiens, RPMI-1788; MLR assay of example 319; read-out: MLR IC50. The method, boiled down:
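Responder PBMC co-cultured in triplicate with 30 Gy-irradiated allogeneic PBMC or RPMI1788 B cells plus compound (DMSO stock 10 mM, diluted in medium). After 5 days at 37° C, 1 μCi [3H]-thymidine added for 16 h more; incorporated cpm counted and proliferation inhibition calculated.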
A word on the pIC50: it is the IC50 on a negative log10 scale, so that one unit is a factor of ten. For the compound `Cc1ccc(-c2ccc3nc(N)nc(N4CCN(C(=O)COc5ccc(Cl)cc5)CC4)c3n2)cc1N` [Example 507, 2-amino-4-[N-(4-chlorophenoxyacetyl)-piperazin-1-yl]-6-(3-amino-4-methylphenyl)-pyrido(3,2-d)pyrimidine], the pIC50 is 7.54.

For `CCc1ccc(-c2ccc3nc(N)nc(N4CCN(C(=O)COc5ccc(Cl)cc5)CC4)c3n2)cc1` [Example 508, 2-amino-4-[N-(4-chlorophenoxyacetyl)-piperazin-1-yl]-6-(4-ethylphenyl)-pyrido(3,2-d)pyrimidine], the negative logarithm of the IC50 (pIC50) was 7.92. The figure for `COc1ccc(-c2ccc3nc(N)nc(N4CCN(C(=O)COc5ccc(Cl)cc5)CC4)c3n2)cc1C` [Example 509, 2-amino-4-[N-(4-chlorophenoxyacetyl)-piperazin-1-yl]-6-(3-methyl-4-methoxyphenyl)-pyrido(3,2-d)pyrimidine] is 7.51; for `CCOC(=O)c1ccc(-c2ccc3nc(N)nc(N4CCN(C(=O)COc5ccc(Cl)cc5)CC4)c3n2)cc1` [Example 510, 2-amino-4-[N-(4-chlorophenoxyacetyl)-piperazin-1-yl]-6-(4-ethoxycarbonylphenyl)-pyrido(3,2-d)pyrimidine] it is 7.49. The figure for `Cc1csc(-c2ccc3nc(N)nc(N4CCN(C(=O)COc5ccc(Cl)cc5)CC4)c3n2)c1` [Example 511, 2-amino-4-[N-(4-chlorophenoxyacetyl)-piperazin-1-yl]-6-(4-methyl-2-thienyl)-pyrido(3,2-d)pyrimidine] is 7.27; for `Cc1ccccc1-c1ccc2nc(N)nc(N3CCN(C(=O)COc4ccc(Cl)cc4)CC3)c2n1` [Example 512, 2-amino-4-[N-(4-chlorophenoxyacetyl)-piperazin-1-yl]-6-(2-methyl-phenyl)-pyrido(3,2-d)pyrimidine] it is 8.10; for `Nc1nc(N2CCN(C(=O)COc3ccc(Cl)cc3)CC2)c2nc(-c3ccc(OCc4ccccc4)c(F)c3)ccc2n1` [Example 513, 2-amino-4-[N-(4-chlorophenoxyacetyl)-piperazin-1-yl]-6-(3-fluoro-4-benzyloxy-phenyl)-pyrido(3,2-d)pyrimidine] it is < 5.00. The figure for `COc1cc(-c2ccc3nc(N)nc(N4CCN(C(=O)COc5ccc(Cl)cc5)CC4)c3n2)ccc1N` [Example 514, 2-amino-4-[N-(4-chlorophenoxyacetyl)-piperazin-1-yl]-6-(3-methoxy-4-amino-phenyl)-pyrido(3,2-d)pyrimidine] is 7.15; for `Cc1ccc(-c2ccc3nc(N)nc(N4CCN(C(=O)COc5ccc(Cl)cc5)CC4)c3n2)cc1C` [Example 516, 2-amino-4-[N-(4-chlorophenoxyacetyl)-piperazin-1-yl]-6-(3,4-dimethyl-phenyl)-pyrido(3,2-d)pyrimidine] it is 7.25; for `COc1ccc(-c2ccc3nc(N)nc(N4CCN(C(=O)COc5ccc(Cl)cc5)CC4)c3n2)cc1Cl` [Example 517] it is 7.92. `Nc1nc(N2CCN(C(=O)C3CCc4ccccc4O3)CC2)c2nc(-c3ccc(F)cc3)ccc2n1` (stereo not drawn) [Example 524, [4-(2-amino-6-(4-fluorophenyl)pyrido[3,2-d]pyrimidin-4-yl)piperazin-1-yl]chroman-2-ylmethanone]: the negative logarithm of the IC50 (pIC50) is 6.65.

For the compound `Cc1cccc(NC(=O)N2CCN(c3nc(C)nc4ccc(-c5ccc(F)cc5)nc34)CC2)c1` [Example 531, 2-methyl-4-[N-(3-methylphenylcarbamoyl)piperazin-1-yl]-6-(4-fluorophenyl)-pyrido[3,2-d]pyrimidine], the pIC50 was 7.08.

Take `Cc1cccc(NC(=O)N2CCN(c3nc(-c4ccccc4)nc4ccc(-c5ccc(F)cc5)nc34)CC2)c1` [Example 533, 2-phenyl-4-[N-(3-methylphenylcarbamoyl)piperazin-1-yl]-6-(4-fluorophenyl)-pyrido[3,2-d]pyrimidine]: the pIC50 was 5.59. With `Cc1cccc(NC(=O)N2CCN(c3nc(CN(C)C)nc4ccc(-c5ccc(F)cc5)nc34)CC2)c1` [Example 537, 2-(N,N-dimethylamino)methyl-4-[N-(3-methylphenylcarbamoyl)piperazin-1-yl]-6-(4-fluorophenyl)-pyrido[3,2-d]pyrimidine] the figure was 5.48; with `COCCNCc1nc(N2CCN(C(=O)Nc3cccc(C)c3)CC2)c2nc(-c3ccc(F)cc3)ccc2n1` [Example 538, 2-(N-methoxyethylamino)methyl-4-[N-(3-methylphenylcarbamoyl)piperazin-1-yl]-6-(4-fluorophenyl)-pyrido[3,2-d]pyrimidine], 6.47. The figure for `Cc1cccc(NC(=O)N2CCN(c3nc(CNC4CC4)nc4ccc(-c5ccc(F)cc5)nc34)CC2)c1` [Example 539, 2-(N-cyclopropylamino)methyl-4-[N-(3-methylphenylcarbamoyl)piperazin-1-yl]-6-(4-fluorophenyl)-pyrido[3,2-d]pyrimidine] is 6.15.

As to `Cc1cccc(NC(=O)N2CCN(c3nc(N)nc4ccc(Cl)nc34)CC2)c1` [Example 541, 2-amino-4-[(3-methylphenylcarbamoyl)-piperazin-1-yl]-6-chloro-pyrido[3,2-d]pyrimidine], the negative logarithm of the IC50 (pIC50) was 7.22. With `Cc1cccc(NC(=O)N2CCN(c3nc(N)nc4ccc(-c5ccncc5)nc34)CC2)c1` [Example 542, 2-amino-4-[(3-methylphenylcarbamoyl)-piperazin-1-yl]-6-(4-pyridyl)-pyrido[3,2-d]pyrimidine] the figure was 8.30; with `Cc1cccc(NC(=O)N2CCN(c3nc(N)nc4ccc(-c5ccc(C#N)cc5)nc34)CC2)c1` [Example 543, 2-amino-4-[(3-methylphenylcarbamoyl)-piperazin-1-yl]-6-(4-cyano-phenyl)-pyrido[3,2-d]pyrimidine], 7.52.

Turning to `Cc1cccc(NC(=O)N2CCN(c3nc(N)nc4ccc(-c5cccc(C#N)c5)nc34)CC2)c1` [Example 545, 2-amino-4-[(3-methylphenylcarbamoyl)-piperazin-1-yl]-6-(3-cyanophenyl)-pyrido[3,2-d]pyrimidine], the pIC50 is 7.52. With `Cc1cccc(NC(=O)N2CCN(c3nc(N)nc4ccc(-c5ccccc5C#N)nc34)CC2)c1` [Example 546, 2-amino-4-[(3-methylphenylcarbamoyl)-piperazin-1-yl]-6-(2-cyano-phenyl)-pyrido[3,2-d]pyrimidine], the pIC50 is 8.40. With `Cc1cccc(NC(=O)N2CCN(c3nc(N)nc4ccc(-c5ccccc5F)nc34)CC2)c1` [Example 547, 2-amino-4-[(3-methylphenylcarbamoyl)-piperazin-1-yl]-6-(2-fluoro-phenyl)-pyrido[3,2-d]pyrimidine] the figure was 7.22; with `Cc1cccc(NC(=O)N2CCN(c3nc(N)nc4ccc(-c5ccc(C(F)(F)F)cc5)nc34)CC2)c1` [Example 548, 2-amino-4-[(3-methylphenylcarbamoyl)-piperazin-1-yl]-6-(4-trifluoromethylphenyl)-pyrido[3,2-d]pyrimidine], 6.77; with `Cc1cccc(NC(=O)N2CCN(c3nc(N)nc4ccc(-c5ccccc5Cl)nc34)CC2)c1` [Example 549, 2-amino-4-[(3-methylphenylcarbamoyl)-piperazin-1-yl]-6-(2-chlorophenyl)-pyrido[3,2-d]pyrimidine], 7.10.
